# Experimental data from patent US20030166161A1, “Gene that imparts selective proliferative activity” (priority 1997, published 2003).
# B1: Mpl-ER: fusion protein between Mpl and ER (protein)
# chain: QDVSLLASDSEPLKCFSRTFEDLTCFWDEEEAAPSGTYQLLYAYPREKPRACPLSSQSMPHFGTRYVCQFPDQEEVRLFFPLHLWVKNVFLNQTRTQRVLFVDSVGLPAPPSIIKAMGGSQPGELQISWEEPAPEISDFLRYELRYGPRDPKNSTGPTVIQLIATETCCPALQRPHSASALDQSPCAQPTMPWQDGPKQTSPSREASALTAEGGSCLISGLQPGNSYWLQLRSEPDGISLGGSWGSWSLPVTVDLPGDAVALGLQCFTLDLKNVTCQWQQQDHASSQGFFYHSRARCCPRDRYPIWENCEEEEKTNPGLQTPQFSRCHFKSRNDSIIHILVEVTTAPGTVHSYLGSPFWIHQAVRLPTPNLHWREISSGHLELEWQHPSSWAAQETCYQLRYTGEGHQDWKVLEPPLGARGGTLELRPRSRYRLQLRARLNGPTYQGPWSSWSDPTRVETATETAWISLVTALHLVLGLSAVLGLLLLRWQFPAHYRRLRHALWPSLPDLHRVLGQYLRDTAALSPPKATVSDTCEEVEPSLLEILPKSSERTPLPLCSSQAQMDYRRLQPSCLGTMPLSVCPPMAESGSCCTTHIANHSYLPLSYWQQPGTSGDMRAANLWPSPLVIKHTKKNSPALSLTADQMVSALLDAEPPLIYSEYDPSRPFSEASMMGLLTNLADRELVHMINWAKRVPGFGDLNLHDQVHLLECAWLEILMIGLVWRSMEHPGKLLFAPNLLLDRNQGKCVEGMVEIFDMLLATSSRFRMMNLQGEEFVCLKSIILLNSGVYTFLSSTLKSLEEKDHIHRVLDKINDTLIHLMAKAGLTLQQQHRRLAQLLLILSHIRHMSNKGMEHLYNMKCKNVVPLYDLLLEMLDAHRLHAPASRMGVPPEEPSQSQLTTTSSTSAHSLQTYYIPPEAEGFPNTI
# B2: G-CSF: cytokine (hematopoietic factor); human G-CSF provided by Chugai Pharmaceuticals (protein)
# chain: TPLGPASSLPQSFLLKCLEQVRKIQGDGAALQEKLCATYKLCHPEELVLLGHSLGIPWAPLSSCPSQALQLAGCLSQLHSGLFLYQGLLQALEGISPELGPTLDTLQLDVADFATTIWQQMEELGMAPALQPTQGAMPAFASAFQRRAGGVLVASHLQSFLEVSYRVLRHLAQP
# Columns and labels:
# [1] = tested on: BaF/ΔGCRTmR clones; experiment: XTT proliferation assay of BaF/ΔGCRTmR clones; assay type: cell-based; conditions: 10^−9 M G-CSF or 10^−7 M Tm; FIG. 17E-G
# Experimental: (§1) Cultures containing IL-3 or G-CSF were split every three to four days, while Tm-containing cultures were diluted every four days. Cell proliferation assay was performed periodically in 96-well microtiter plates by the 2,3-bis (2-methoxy-4-nitro-5-sulfophenyl)-5-[(phenylamino)-carbonyl]-2H-tetrazolium hydroxide (XTT) method using Cell Proliferation Kit II (Boehringer Mannheim, Mannheim, Germany) [Scudiero D A, et al., Cancer Res., (1988) 48: 4827-4833]. For hormone dose-response analysis, transduced Ba/F3 cells were stimulated by various concentrations of Tm or E2, and XTT assay was performed on day zero and day four. The final concentration of ethanol used to dilute Tm and E2 was 0.1% in all the culture conditions.
# [2] = tested on: parental and transduced Ba/F3 cultures; experiment: Toxicity of E2 or Tm in Ba/F3 cultures with IL-3; conditions: concentrations up to 10^−6 M
# Experimental: as §1
# [3] = tested on: BaF/GCRTmR clones; experiment: XTT proliferation assay of BaF/GCRTmR clones; assay type: cell-based; conditions: for growth of GCRTmR-transduced Ba/F3 cells with stimulator: IL-3, 10^−9 M G-CSF, 10^−7 M Tm or 10^−7 M E2, FIG. 17B-D
# Experimental: as §1
# [4] = tested on: Parental Ba/F3 cells; experiment: XTT proliferation assay of parental Ba/F3 cells; assay type: cell-based; conditions: IL-3, 10^−9 M G-CSF, 10^−7 M Tm, 10^−7 M E2; FIG. 17A
# Experimental: as §1
# [5] = tested on: Ba/F3 cells into which pCMX-GCRER was introduced; experiment: XTT proliferation assay, Ba/F3 cells with pCMX-GCRER; assay type: cell-based; conditions: for proliferation of IL-3-independent cells by stimulation: stimulation with G-CSF or estradiol, FIG. 3
# Source text: The Ba/F3 cells into which “pCMX-GCRER” was introduced were examined.
# [6] = tested on: GCRER-expressing Ba/F3; conditions: Ito K, et al., Blood (1997), cited from earlier work
# [7] = tested on: Ba/F3 cells into which pCMX-GCRΔ(5-195)/ER was introduced; experiment: XTT proliferation assay, Ba/F3 cells with pCMX-GCRΔ(5-195)/ER; assay type: cell-based; conditions: G-CSF or estradiol stimulation, FIG. 5
# Source text: The Ba/F3 cells into which “pCMX-GCRΔ(5-195)/ER” was introduced were then examined.
# [8] = tested on: Ba/F3 cells into which pCMX-GRΔ(5-195, 725-756)/ER was introduced; experiment: XTT proliferation assay, Ba/F3 cells with pCMX-GCRΔ(5-195, 725-756)/ER; assay type: cell-based; conditions: estrogen or G-CSF stimulation
# [9] = tested on: Ba/F3 cells; experiment: MTS cell proliferation assay of Ba/F3 cells transduced with Mpl chimeric genes; assay type: cell-based
# Experimental: BOSC23 cells were transfected with MSCV/ΔGCR-ER orMSCV/Mpl-ER or MSCV/ΔGCR-Mpl-ER or MSCV/ΔGCR-Mpl-TmR-IRES-EGFP using Transfection MBS Mammalian Transfection Kit (Stratagene) and the viral supernatants were harvested on day two post-transfection. Fibronectin-assisted transduction of IL3-dependentBa/F3 cells was carried out on 6-well plates precoated with CH296 fibronectin fragment (Retronectin; Takara Shuzo) according to a standard procedure. After retroviral infection, ΔGCR-Mpl-TmR-IRES-EGFP transduced Ba/F3 cells (BaF/ΔGCR-Mpl-TmR) were selected with EPICS Elite ESP Cell Sorter. GFP-positive cells were […] and were cloned by limiting dilution with 10^−7 M 4-hydroxytamoxifen (Tm).
# Cell proliferation assay was periodically performed using CellTier 96 Aqueous One Solution Cell Proliferation Assay {3-(4,5-dimethylthiazol-2-yl)-5-(3-carboxymethoxyphenyl)-2-(4-sulfophenyl)-2H-tetrazolium (MTS); Promega, Madison, Wis.} essentially according to the manufacturer's instruction. In brief, 20 μl per well of MTS-labeling mixture was added. After the incubation at 37° C. for 2 hours, the spectrophotometeical absorbance was measured at the wave length of 490 nm and 650 nm.
# [10] = XTT day four vs day zero, FIG. 19
Molecule,growth of BaF/ΔGCRTmR clones with stimulator [1],toxic effects [2],optimal concentration of Tm to stimulate BaF/GCRTmR [3],"response to 10 M Tm, clone 3 ([3]; BaF/GCRTmR clone 3, 10 M Tm as printed)",growth of GCRTmR-transduced Ba/F3 cells with stimulator [3],"Tm concentration at which all three clones grew well [3, 10]","time until cells stopped growing and died upon removal of Tm ([3]; long-term culture without IL-3, FIG. 18) [h]","time Tm alone could support the cells in long-term culture ([3]; without IL-3, FIG. 18)",support of untransduced Ba/F3 by stimulator [4],"response to 10^−6 M E2, clone 3 ([3]; BaF/GCRTmR clone 3, 10^−6 M E2)","response to 10^−6 M E2, the other clones ([3]; BaF/GCRTmR clones 1 and 2, 10^−6 M E2)","E2 concentration up to which no growth was observed [3, 10]","estradiol concentrations at which cell proliferation was observed ([5]; estradiol varied between 10^−14 and 10^−7 M, FIG. 4)",proliferation of IL-3-independent cells by stimulation [5],E2 concentration inducing proliferation of GCRER-expressing Ba/F3 [6],E2 dose optimal to support Ba/F3 cells expressing GCRER or ΔGCRER ([6]; previous study),cell proliferation by stimulation [7],cell proliferation by stimulation [8],growth response to TPO in the absence of IL-3 ([9]; 100 ng/ml rhTPO),growth response to estrogen (E2) in the absence of IL-3 ([9]; 10^−7M β-estradiol)
4-hydroxytamoxifen [Tm],proliferated,neither reagent showed toxic effects,10^−7-10^−6 M,partially responded,grew continuously,10^−7-10^−6 M,≤ 24,at least 36 days,did not support,–,–,–,–,–,–,–,–,–,–,–
"C[C@]12CC[C@@H]3c4ccc(O)cc4CC[C@H]3[C@@H]1CC[C@@H]2O [estradiol, β-estradiol]",–,–,–,–,had no effect,–,–,–,did not support,limited response,inert,up to 10^−7 M,10^−9 to 10^−7 M,proliferated,≥ 10^−10 M,10^−7 M,caused cell proliferation,cell proliferation was caused,–,–
B1,–,–,–,–,–,–,–,–,–,–,–,–,–,–,–,–,–,–,acquired the ability to proliferate,acquired the ability to proliferate
B2,did not respond,–,–,–,grew continuously,–,–,–,did not support,–,–,–,–,proliferated,–,–,blocked,no response,–,–
